Test results published in US11760752B2, “Carboxylic acid, acyl sulfonamide and acyl sulfamide-derivatized bicyclic aza-heteroaromatics as selective Mcl-1 inhibitors and as dual Mcl-1/Bcl-2 inhibitors” (University of Maryland, Baltimore, priority 2019, dated 2023).
Like-named read-outs stand apart in the source and are kept apart here.

Experiments:
[1] = biological target: BCL-2 (Homo sapiens (Human), UniProt P10415); assay: Fluorescence polarization competition assay (FPCA), displacement of FITC-Bak from BCL-2; type: binding
Experimental: (§1) These values were determined from a fluorescence polarization competition assay involving a fluorescently labeled peptide (BAK) bound to the desired Bcl-2 anti-apoptotic protein. […] These inhibition constants are the concentrations at which the indazole derivatives can displace 50% of BAK from the indicated Bcl-2 anti-apoptotic proteins.
(§2) The concentrated peptide stocks were prepared in DMSO and the concentration of the peptide was determined in water at pH 8.0 using the extinction coefficient for amide-linked FITC of λ494=68,000 cm^−1M^−1.
(§3) The fluorescence polarization assays were performed in 96 well polypropylene F-bottom black microplates (Greiner Bio-One) with a final volume of 100 μL.
(§4) The fluorescence polarization competition assays were setup using a Biomek FXP Automated Liquid Handling System. […] The IC50 values were then converted to Ki values using an equation derived by Nikolovska-Coleska et al. All inhibitors were tested in triplicate.

[2] = biological target: MCL-1 (Homo sapiens (Human), UniProt Q07820); assay: Fluorescence polarization competition assay (FPCA), displacement of FITC-Bak from MCL-1; type: binding
[3] = biological target: T1, BCL-XL (Homo sapiens (Human), UniProt Q07817); assay: Fluorescence polarization competition assay (FPCA), displacement of FITC-Bak from BCL-XL; type: binding
Experimental: as §1, §2, §3, §4
Target sequence in this assay (Q07817 1-212): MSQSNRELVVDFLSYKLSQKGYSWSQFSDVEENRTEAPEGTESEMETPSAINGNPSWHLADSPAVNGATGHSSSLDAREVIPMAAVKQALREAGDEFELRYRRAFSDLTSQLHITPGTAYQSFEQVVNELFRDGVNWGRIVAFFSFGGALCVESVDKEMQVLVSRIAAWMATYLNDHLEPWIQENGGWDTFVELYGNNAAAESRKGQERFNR

[4] = biological target: T1, BCL-XL; conditions: relative to BCL-2; cited from earlier work
Target sequence in this assay (Q07817 whole entry, species assumed): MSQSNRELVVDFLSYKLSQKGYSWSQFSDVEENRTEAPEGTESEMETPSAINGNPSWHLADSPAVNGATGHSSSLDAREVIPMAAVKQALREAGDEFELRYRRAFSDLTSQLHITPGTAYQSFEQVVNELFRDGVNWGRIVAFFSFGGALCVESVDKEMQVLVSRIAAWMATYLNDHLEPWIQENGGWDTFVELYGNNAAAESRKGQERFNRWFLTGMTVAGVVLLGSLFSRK

[5] = Table 3, FITC-Bak peptide displacement, read-out: MCL-1 Affinity Ki
[6] = Table 5, heterocyclic core SAR, read-out: MCL-1 Ki
[7] = Table 8, N-1-alkylated isomers, read-out: BCL-2 Ki
[8] = Table 3, FITC-Bak peptide displacement, read-out: BCL-2 Affinity Ki
[9] = Table 3, FITC-Bak peptide displacement, read-out: BCL-XL Affinity Ki

BCL-2, sequence (P10415 1-211): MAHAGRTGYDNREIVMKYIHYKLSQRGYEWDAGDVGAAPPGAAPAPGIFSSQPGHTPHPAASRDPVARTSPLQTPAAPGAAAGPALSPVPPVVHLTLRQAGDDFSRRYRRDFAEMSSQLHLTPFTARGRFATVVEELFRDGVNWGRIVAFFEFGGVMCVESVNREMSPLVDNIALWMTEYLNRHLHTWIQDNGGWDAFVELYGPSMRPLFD
MCL-1, sequence (Q07820 172-327): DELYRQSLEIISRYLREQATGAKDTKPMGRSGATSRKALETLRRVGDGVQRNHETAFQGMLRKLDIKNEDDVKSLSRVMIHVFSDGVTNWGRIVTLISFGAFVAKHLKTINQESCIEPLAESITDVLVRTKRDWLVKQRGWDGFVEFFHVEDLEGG

For `Cc1cc(OCCCn2nc(C(=O)O)c3cc(Cl)ccc32)cc(C)c1Cl` [BD-3-173], the Ki ([1]; read-out: BCL-2 Affinity Ki) was 5.79 ± 0.62 µM and the Ki [2, 5] was 5.8 ± 0.36 µM.
For `Cc1cc(OCCn2nc3ccc(Cl)cc3c2C(=O)O)cc(C)c1Cl` [compound 11, 5-chloro-2-(2-(4-chloro-3,5-dimethylphenoxy)ethyl)-2H-indazole-3-carboxylic acid], the Ki [2, 6] was > 10 µM and the Ki ([2]; read-out: MCL-1 Ki) was > 10 µM.
In the case of `Cc1cc(Oc2ccc(Cn3nc(C(=O)NS(=O)(=O)c4ccc(NCc5cccnc5)c([N+](=O)[O-])c4)c4cc(Cl)ccc43)cc2)cc(C)c1Cl` [compound 52, 5-chloro-1-(4-(4-chloro-3,5-dimethylphenoxy)benzyl)-N-((3-nitro-4-((pyridin-3-ylmethyl)amino)phenyl)sulfonyl)-1H-indazole-3-carboxamide], the “BCL-2 binding affinity (in words)” value [1] is reported as “within the nanomolar range”, the Ki [1, 7] is reported as 0.69 ± 0.11 µM and the Ki [2] is reported as > 10 µM. The “BCL-XL affinity (in words)” value [3] was “no affinity”.
Compound `Cc1cc(OCCCn2nc(C(=O)NS(=O)(=O)c3ccc(NCC4CCCO4)c([N+](=O)[O-])c3)c3cc(Cl)ccc32)cc(C)c1Cl` (stereo not drawn) [BD-3-184] has a Ki [1, 8] of 1.17 ± 0.16 µM, a Ki [2, 5] of 0.69 ± 0.03 µM and a Ki [3, 9] of 0.84 ± 0.14 µM.
`Cc1cc(Oc2ccc(Cn3nc(C(=O)O)c4cc(Cl)ccc43)cc2)cc(C)c1Cl` [NB-1-070] gave a Ki ([1]; read-out: BCL-2 Affinity Ki) of 1.04 ± 0.19 µM, a Ki [2, 5] of 0.91 ± 0.05 µM and a Ki ([3]; read-out: BCL-XL Affinity Ki) of 2.01 ± 0.35 µM.
`Cc1cc(Oc2ccc(Cn3nc(C(=O)NS(=O)(=O)c4ccc(NCc5cccnc5)c([N+](=O)[O-])c4)c4cc(Cl)ccc43)cc2)cc(C)c1Cl` [NB-1-087] showed a Ki ([1]; read-out: BCL-2 Affinity Ki) of 0.611 ± 0.2 µM, a Ki [2, 5] of 0.52 ± 0.03 µM and a Ki ([3]; read-out: BCL-XL Affinity Ki) of 0.557 ± 0.08 µM.
Compound `Cc1cc(OCCCn2nc(C(=O)NS(=O)(=O)c3ccc(NCc4cccnc4)c([N+](=O)[O-])c3)c3cc(Cl)ccc32)cc(C)c1Cl` [BD-3-181] has a Ki [1, 8] of 0.694 ± 0.09 µM, a Ki [2, 5] of 0.84 ± 0.05 µM and a Ki [3, 9] of 0.574 ± 0.11 µM.
In the case of `Cc1cc(Oc2ccc(Cn3nc(C(=O)NS(=O)(=O)c4ccc([N+](=O)[O-])c(NCc5ccco5)c4)c4cc(Cl)ccc43)cc2)cc(C)c1Cl` [CG-1-019], the Ki [1, 8] is reported as 0.384 ± 0.03 µM, the Ki [2, 5] is reported as 1.14 ± 0.05 µM and the Ki [3, 9] is reported as 0.325 ± 0.05 µM.
Work on `CCN1CCN(c2cc(S(=O)(=O)NC(=O)c3nn(Cc4ccc(Oc5cc(C)c(Cl)c(C)c5)cc4)c4ccc(Cl)cc34)ccc2[N+](=O)[O-])CC1` [CG-1-023] yielded a Ki ([1]; read-out: BCL-2 Affinity Ki) of 74.3 ± 11.5 µM and a Ki [2, 5] of 12.4 ± 0.37 µM.
In the case of `Cc1cc(OCCCn2c(C(=O)O)nc3ccccc32)cc(C)c1Cl` [compound 5, 1-(3-(4-chloro-3,5-dimethylphenoxy)propyl)-1H-benzo[d]imidazole-2-carboxylic acid], the Ki [2, 6] is reported as > 10 µM and the Ki ([2]; read-out: MCL-1 Ki) is reported as > 10 µM.
`Cc1cc(Oc2ccc(Cn3nc4cc(Cl)ccc4c3C(=O)O)cc2)cc(C)c1Cl` [compound 49, 6-chloro-2-(4-(4-chloro-3,5-dimethylphenoxy)benzyl)-2H-indazole-3-carboxylic acid] gave a Ki [2, 6] of 1.76 ± 0.55 µM and a Ki ([2]; read-out: MCL-1 Ki) of 1.76 ± 0.55 µM.
Compound `Cc1cc(Oc2ccc(Cn3nc4ccc(Cl)cc4c3C(=O)O)cc2)cc(C)c1Cl` [compound 12, 5-chloro-2-(4-(4-chloro-3,5-dimethylphenoxy)benzyl)-2H-indazole-3-carboxylic acid] has a Ki ([1]; read-out: BCL-2 Ki) of 1.45 ± 0.075 µM, a Ki [2, 6] of 2.36 ± 0.29 µM and a Ki ([2]; read-out: MCL-1 Ki) of 2.36 ± 0.29 µM.
With `Cc1cc(Oc2ccc(Cn3nc(C(=O)NS(=O)(=O)c4ccc([N+](=O)[O-])c(NCc5cccnc5)c4)c4cc(Cl)ccc43)cc2)cc(C)c1Cl` [CG-1-018] the Ki [1, 8] was 0.384 ± 0.03 µM, the Ki [2, 5] was 0.48 ± 0.03 µM and the Ki [3, 9] was 0.436 ± 0.07 µM.
With `Cc1cc(OCCCn2nc(C(=O)NS(=O)(=O)c3ccc(NCc4ccco4)c([N+](=O)[O-])c3)c3cc(Cl)ccc32)cc(C)c1Cl` [BD-3-180] the Ki [1, 8] was 0.572 ± 0.05 µM, the Ki [2, 5] was 0.48 ± 0.03 µM and the Ki [3, 9] was 0.597 ± 0.18 µM.
With `Cc1cc(OCCCn2nc3ccc(Cl)cc3c2C(=O)O)cc(C)c1Cl` [compound 10, 5-chloro-2-(3-(4-chloro-3,5-dimethylphenoxy)propyl)-2H-indazole-3-carboxylic acid] the Ki [2, 6] was > 10 µM and the Ki ([2]; read-out: MCL-1 Ki) was > 10 µM.
`Cc1cc(Oc2ccc(Cn3nc(C(=O)NS(=O)(=O)c4ccc([N+](=O)[O-])c(N5CCOCC5)c4)c4cc(Cl)ccc43)cc2)cc(C)c1Cl` [CG-1-016] showed a Ki [1, 8] of 0.451 ± 0.04 µM, a Ki [2, 5] of 0.37 ± 0.02 µM and a Ki [3, 9] of 0.436 ± 0.07 µM.
For `Cc1cc(Oc2ccc(Cn3nc(C(=O)NS(=O)(=O)c4ccc(N5CCOCC5)c([N+](=O)[O-])c4)c4cc(Cl)ccc43)cc2)cc(C)c1Cl` [compound 51, 5-chloro-1-(4-(4-chloro-3,5-dimethylphenoxy)benzyl)-N-((4-morpholino-3-nitrophenyl)sulfonyl)-1H-indazole-3-carboxamide], the “BCL-2 binding affinity (in words)” value [1] was “within the nanomolar range”, the Ki [1, 7] was 0.62 ± 0.12 µM and the Ki [2] was 2.22 ± 0.2 µM. The “BCL-XL affinity (in words)” value [3] was “no affinity”.
In the case of `CC1(C)CCC(CN2CCN(c3ccc(C(=O)NS(=O)(=O)c4ccc(NCC5CCOCC5)c([N+](=O)[O-])c4)c(Oc4cnc5[nH]ccc5c4)c3)CC2)=C(c2ccc(Cl)cc2)C1` [venetoclax, Venetoclax], the “BCL-XL affinity, fold lower than BCL-2” value [4] is given as “more than 100 fold”.
With `Cc1cc(OCCCc2c(C(=O)O)n(C)c3cc(Cl)ccc23)cc(C)c1Cl` the Ki ([1]; Table 4, FPCA data for control compounds, read-out: BCL-2 Ki) was > 10 µM and the Ki ([3]; Table 4, FPCA data for control compounds, read-out: BCL-XL Ki) was 1.2 ± 0.16 µM.
For `Cc1cc(OCCCn2nc(C(=O)NS(=O)(=O)c3ccc(N4CCOCC4)c([N+](=O)[O-])c3)c3cc(Cl)ccc32)cc(C)c1Cl` [BD-3-183], the Ki [1, 8] was 0.868 ± 0.13 µM, the Ki [2, 5] was 0.92 ± 0.03 µM and the Ki [3, 9] was 1.06 ± 0.34 µM.
Work on `Cc1cc(Oc2ccc(Cn3nc(C(=O)NS(=O)(=O)c4ccc(NCc5ccco5)c([N+](=O)[O-])c4)c4cc(Cl)ccc43)cc2)cc(C)c1Cl` [NB-1-089] yielded a Ki [1, 8] of 0.266 ± 0.02 µM, a Ki [2, 5] of 0.26 ± 0.01 µM and a Ki [3, 9] of 0.551 ± 0.07 µM.
With `Cc1cc(Oc2ccc(Cn3nc(C(=O)NS(=O)(=O)c4ccc(N5CCOCC5)c([N+](=O)[O-])c4)c4cc(Cl)ccc43)cc2)cc(C)c1Cl` [NB-1-086] the Ki ([1]; read-out: BCL-2 Affinity Ki) was 0.569 ± 0.04 µM, the Ki [2, 5] was 0.32 ± 0.01 µM and the Ki ([3]; read-out: BCL-XL Affinity Ki) was 0.84 ± 0.228 µM.
`Cc1cc(OCCCn2nc(C(=O)NS(=O)(=O)c3ccc(NCC4CCN(C)CC4)c([N+](=O)[O-])c3)c3cc(Cl)ccc32)cc(C)c1Cl` [BD-3-190] showed a Ki ([1]; read-out: BCL-2 Affinity Ki) of 8.93 ± 0.29 µM.
Work on `Cc1cc(Oc2ccc(Cn3nc(C(=O)NS(=O)(=O)c4ccc(NCCN5CCOCC5)c([N+](=O)[O-])c4)c4cc(Cl)ccc43)cc2)cc(C)c1Cl` [NB-1-088] yielded a Ki ([1]; read-out: BCL-2 Affinity Ki) of 0.738 ± 0.19 µM and a Ki [2, 5] of 0.75 ± 0.06 µM.
Work on `Cc1cc(Oc2ccc(Cn3nc(C(=O)NS(=O)(=O)c4ccc(Cl)cc4)c4cc(Cl)ccc43)cc2)cc(C)c1Cl` [NB-1-084] yielded a Ki [1, 8] of 1.09 ± 0.45 µM, a Ki [2, 5] of 0.28 ± 0.01 µM and a Ki [3, 9] of 0.84 ± 0.228 µM.
`Cc1cc(Oc2ccc(Cn3nc(C(=O)O)c4cc(Cl)ccc43)cc2)cc(C)c1Cl` [compound 50, 5-chloro-1-(4-(4-chloro-3,5-dimethylphenoxy)benzyl)-1H-indazole-3-carboxylic acid] gave a Ki ([2]; Table 8, N-1-alkylated isomers, read-out: MCL-1 Ki) of 1.58 ± 0.36 µM.
